Experimental data taken from PubChem BioAssay AID1963842 (Molecular Pharmacology Branch, DTP, NCI, 2024).

Test system: 677734-321-R-J1-PDC complex spheroid viability
Test: Anticancer human tumor 677734-321-R-J1-PDC patient-derived soft tissue sarcoma cell line growth inhibition [POLQ]
Conditions: for IC50: curve of first compound; for viability, T/C: stronger effect = lower value
Description: Multicellular complex tumor spheroid response to Polymerase (POL) inhibitors (novobiocin, ART-558, RP6685) in combination with a variety of drugs and investigational agents in selected tumor cell lines
The POL inhibitors (novobiocin, ART-558, and RP6685) were evaluated both individually and in combination with standard of care and investigational anticancer small molecules within a complex spheroid model of solid tumors. . Complex spheroids include a stromal component modeled by human endothelial cells (HUVEC) and fibroblasts modeled by human mesenchymal stem cells (MSCs). The concentration ranges selected for each drug and investigational agent were based upon clinically achievable concentrations if the clinical Cmax of the agent was known.
Compounds. The drugs and investigational agents: novobiocin (NSC847541), ART-558 (NSC835418), RP-6685 (NSC848927), peposertib (NSC802822), ceralasertib (NSC780249), elimusertib (NSC800525), camonsertib (NSC841442), AZD-1390 (NSC803789), olaparib (NSC753686), talazoparib (NSC767125), rucaparib (NSC756644), sotorasib (NSC818433), MRTX-1133 (NSC836407), SN-38 (NSC673596), topotecan (NSC609699), epotoside (NSC141540), doxorubicin (NSC123127), gemcitabine (NSC613327), 5-fluorouracil (NSC19893), paclitaxel (NSC125973), vemurafenib (NSC761431), MSA-2 (NSC828583), SN-011 (NSC837082), adavosertib (NSC754352), prexasertib (NSC758257), carboplatin (NSC241240) and oxaliplatin (NSC266046), were obtained from the National Cancer Institute (NCI) Developmental Therapeutics Program Chemical Repository (21). The FDA-approved anticancer drug set is available from the Developmental Therapeutics Program at https://dtp.cancer.gov/organization/dscb/obtaining/. […] The stock solutions were prepared in dimethyl sulfoxide (DMSO, Sigma-Aldrich, St. Louis, MO, cat. D2650), except for the platinum compounds which were prepared in saline (Quality Biological, Gaithersburg, MD, cat. 114-055-101), at 800-fold the tested concentration and stored at -70 degrees C prior to their use. All drugs and investigational agents were tested over a range starting from a high concentration at or near the clinical Cmax and decreasing in half-log increments. If the clinical Cmax for an agent had not been determined, the highest concentration tested was 10 microM, except for SN-38, which was tested at a high concentration of 1 microM.
Cell Culture. All cells were maintained in an incubator at 37 degrees C and 5% CO2 with 95% humidity. The PDC lines were cultured according to standard operating procedures established by the NCI PDMR (https://pdmr.cancer.gov). Table 3 of the manuscript, lists the cell lines along with the number of the three cell types plated to form the mct-spheroids and media for tumor cell growth. After thawing, all PDC lines, except 997537-175-T-J1-PDC and 415267-285-R-J2-PDC, were cultured in Matrigel-coated flasks prepared with a working solution of 1X Ham's F-12 nutrient mix, without supplementation (Thermo Fisher Scientific, cat. 11765054), 100 U/mL penicillin-streptomycin (Thermo Fisher Scientific, cat. 15140122), and 2.5% Matrigel (Corning Inc., Corning, NY, cat. 354248) for the first three passages. The two PDC lines 997537-175-T-J1-PDC and 415267-285-R-J2-PDC were cultured on uncoated flasks. The 857933-349-R-J2-PDC line was cultured in 6C/Colon 1B media containing advanced DMEM/F-12 (Thermo Fisher Scientific, cat. 12634028), 10 mM HEPES (Thermo Fisher Scientific, cat. 15630080), 1X GlutaMAX supplement (Thermo Fisher Scientific, cat. 35050061), 0.1 mg/mL primocin (InvivoGen, San Diego, CA, cat. ant-pm-2), 10% defined fetal bovine serum, heat inactivated (HyClone Laboratories Inc., Logan, UT, cat. SH30070.03HI), 50% L-WRN conditioned media (ATCC, cat. CRL-3276), 1.25 mM N-Acetyl-L-cysteine (Sigma-Aldrich, cat. A9165), 10 mM nicotinamide (Sigma-Aldrich, cat. N0636), 1X B-27 supplement (Thermo Fisher Scientific, cat. 17504044), 1X N-2 supplement (Thermo Fisher Scientific, cat. […]

[1] = second compound 0.0316 µM, first compound 0.0316 µM
[2] = second compound 0.0316 µM, first compound 0.1 µM
[3] = second compound 0.0316 µM, first compound 0.316 µM
[4] = second compound 0.0316 µM, first compound 1 µM
[5] = second compound 0.0316 µM, first compound 3.16 µM
[6] = second compound 0.0316 µM, first compound 10 µM
[7] = second compound 0.1 µM, first compound 0.0316 µM
[8] = second compound 0.1 µM, first compound 0.1 µM
[9] = second compound 0.1 µM, first compound 0.316 µM
[10] = second compound 0.1 µM, first compound 1 µM
[11] = second compound 0.1 µM, first compound 3.16 µM
[12] = second compound 0.1 µM, first compound 10 µM
[13] = second compound 0.316 µM, first compound 0.0316 µM
[14] = second compound 0.316 µM, first compound 0.1 µM
[15] = second compound 0.316 µM, first compound 0.316 µM
[16] = second compound 0.316 µM, first compound 1 µM
[17] = second compound 0.316 µM, first compound 3.16 µM
[18] = second compound 0.316 µM, first compound 10 µM
[19] = second compound 1 µM, first compound 0.0316 µM
[20] = second compound 1 µM, first compound 0.1 µM
[21] = second compound 1 µM, first compound 0.316 µM
[22] = second compound 1 µM, first compound 1 µM
[23] = second compound 1 µM, first compound 3.16 µM
[24] = second compound 1 µM, first compound 10 µM
[25] = second compound 3.16 µM, first compound 0.0316 µM
[26] = second compound 3.16 µM, first compound 0.1 µM
[27] = second compound 3.16 µM, first compound 0.316 µM
[28] = second compound 3.16 µM, first compound 1 µM
[29] = second compound 3.16 µM, first compound 3.16 µM
[30] = second compound 3.16 µM, first compound 10 µM
[31] = second compound 10 µM, first compound 0.0316 µM
[32] = second compound 10 µM, first compound 0.1 µM
[33] = second compound 10 µM, first compound 0.316 µM
[34] = second compound 10 µM, first compound 1 µM
[35] = second compound 10 µM, first compound 3.16 µM
[36] = second compound 10 µM, first compound 10 µM
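Further: spheroids exposed to compounds for one week.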
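Wherever viability, T/C is given: 100% = vehicle DMSO treated spheroids.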

Compound: Nc1ccn(C2OC(CO)C(O)C2(F)F)c(=O)n1 (centres undefined) + COC1C(OC(N)=O)C(O)C(Oc2ccc3c(O)c(NC(=O)c4ccc(O)c(CC=C(C)C)c4)c(=O)oc3c2C)OC1(C)C
- IC50 (second compound 0.0316 µM): < 31.6 nM
- IC50 (second compound 0.1 µM): < 31.6 nM
- IC50 (second compound 0.316 µM): < 31.6 nM
- IC50 (second compound 1 µM): < 31.6 nM
- IC50 (second compound 3.16 µM): < 31.6 nM
- IC50 (second compound 10 µM): < 31.6 nM
- viability, T/C [1]: 32.5%
- viability, T/C [2]: 15.3%
- viability, T/C [3]: 13.9%
- viability, T/C [4]: 11.8%
- viability, T/C [5]: 10.9%
- viability, T/C [6]: 8.72%
- viability, T/C [7]: 38.9%
- viability, T/C [8]: 17.6%
- viability, T/C [9]: 14%
- viability, T/C [10]: 12.8%
- viability, T/C [11]: 8.3%
- viability, T/C [12]: 9.61%
- viability, T/C [13]: 30.9%
- viability, T/C [14]: 16.8%
- viability, T/C [15]: 15.9%
- viability, T/C [16]: 13.1%
- viability, T/C [17]: 12.1%
- viability, T/C [18]: 8.63%
- viability, T/C [19]: 30.2%
- viability, T/C [20]: 17.2%
- viability, T/C [21]: 11.1%
- viability, T/C [22]: 14.3%
- viability, T/C [23]: 11.7%
- viability, T/C [24]: 7.96%
- viability, T/C [25]: 30.1%
- viability, T/C [26]: 16.6%
- viability, T/C [27]: 12.9%
- viability, T/C [28]: 14.5%
- viability, T/C [29]: 11.4%
- viability, T/C [30]: 8.33%
- viability, T/C [31]: 39.1%
- viability, T/C [32]: 12.8%
- viability, T/C [33]: 12.1%
- viability, T/C [34]: 13.1%
- viability, T/C [35]: 11.1%
- viability, T/C [36]: 11%

Compound: O=c1[nH]cc(F)c(=O)[nH]1 + COC1C(OC(N)=O)C(O)C(Oc2ccc3c(O)c(NC(=O)c4ccc(O)c(CC=C(C)C)c4)c(=O)oc3c2C)OC1(C)C
- IC50 (second compound 0.0316 µM): 2780 nM
- IC50 (second compound 0.1 µM): 3130 nM
- IC50 (second compound 0.316 µM): 2910 nM
- IC50 (second compound 1 µM): 3150 nM
- IC50 (second compound 3.16 µM): 6550 nM
- IC50 (second compound 10 µM): 2870 nM
- viability, T/C [1]: 113%
- viability, T/C [2]: 98.6%
- viability, T/C [3]: 106%
- viability, T/C [4]: 94.8%
- viability, T/C [5]: 44.4%
- viability, T/C [6]: 40.5%
- viability, T/C [7]: 111%
- viability, T/C [8]: 103%
- viability, T/C [9]: 103%
- viability, T/C [10]: 91.9%
- viability, T/C [11]: 49.3%
- viability, T/C [12]: 43.2%
- viability, T/C [13]: 107%
- viability, T/C [14]: 102%
- viability, T/C [15]: 108%
- viability, T/C [16]: 98.5%
- viability, T/C [17]: 46.2%
- viability, T/C [18]: 37.1%
- viability, T/C [19]: 117%
- viability, T/C [20]: 101%
- viability, T/C [21]: 112%
- viability, T/C [22]: 91.6%
- viability, T/C [23]: 50.2%
- viability, T/C [24]: 41.1%
- viability, T/C [25]: 106%
- viability, T/C [26]: 101%
- viability, T/C [27]: 121%
- viability, T/C [28]: 83.7%
- viability, T/C [29]: 63.1%
- viability, T/C [30]: 42.8%
- viability, T/C [31]: 105%
- viability, T/C [32]: 107%
- viability, T/C [33]: 115%
- viability, T/C [34]: 89.7%
- viability, T/C [35]: 47.5%
- viability, T/C [36]: 43.3%
